Values quoted from earlier work in patent US20190343774A1, “Compositions and Methods for Treating Neurologic Disorders” (PALUPA MEDICAL LTD., priority 2011, published 2019).

Tested on: relapsing multiple sclerosis

Substance | decrease of the possibility of disability accumulation (known) [%] | decrease on ARR (known) [%] | reduction of the annualized relapse rate (two-year trials)
Tysabri®: monoclonal antibody; second-line MS drug | 43 | 68 | –
glatiramer acetate | – | – | about one third
